Assay results from US20060122153A1, “Antineoplastic ether lipid compounds with modifications at the sn-2 carbon” (priority 2003, published 2006).

Assays:
[1] = system: EKVX; assay: NCI growth inhibition screen, non-small cell lung panel; assay type: cell-based, human; design: key: = means equivalent activity; + means that it appears to be significantly better (i.e., by ˜2x); < means it appears to be less active than ET18OCH3 (˜2x); a combination like =/+ or </+ means that activity is dependent upon the isomer; a combination like =/+ or </+ means that activity is dependent upon the isomer; conditions: NS cell lung, from GI50s
Procedure: Candidates deemed suitable for in vivo testing were then synthesized in large scale quantities and some of this material was sent to the NCI's Developmental Therapeutics Program for a battery of growth inhibitory studies against various human tumor cell lines (60 cell lines, 9 different panels). The remainder of the material was used to assess in vivo efficacy using murine tumor models. Additionally, studies were conducted on the lead candidates to discern mechanism of action with particular emphasis on these agents apoptotic ability as measured by caspase 3 activity. The details (materials and methods) for these various assays are described further in the following discussion.
Ten compounds were also sent to NCI's Drug Discovery Program for screening against numerous human tumor cell lines (9 panels total: renal ovarian, colon, CNS, non-small cell lung, leukemia, breast, melanoma, and prostate). The data are shown in FIGS. 2a-i which also include data regarding D- and L-ET-18-OCH3 (listed as L-EL and D-EL in the figures). Upon examining the data, one is struck by how 1R and 1a′S standout in comparison to the other compounds, especially for the renal, ovarian, colon, and CNS panels.

[2] = system: platelets in dog whole blood
Procedure: Briefly, whole citrated blood is diluted 1:2 with sterile saline and placed in a warm chamber with a mini stir bar. An electronic probe, measuring electrical resistance, is inserted in the sample. The aggregometer is calibrated and the baseline is observed to detect any spontaneous aggregation. The test sample is added and allowed to run for at least 6 minutes. If the sample is an agonist the platelets will start to aggregate and stick to the electronic probe causing resistance across the electrodes to increase. This resistance, in ohms, is measured 6 minutes post addition of sample. The test samples are run at 25, 100, 200, 400 and 800 uM and compared to 100 uM L-ET-18-OCH3.
Collection of Blood Sample for in vitro Platelet Aggregation Testing: Venous blood is collected in 4.5 mL Vacutainer tubes containing 0.129 M sodium citrate using a 21G needle or larger. Blood is immediately mixed by gentle inversion 15-20 times and kept at room temperature. Dilution ratio is 1 to 9 (3.8% citrate solution:blood). One (2.0 mL) Vacutainer tube containing EDTA is also collected for platelet counts. Complete blood counts (CBC) are measured on the CDC Technologies Hemavet 1500 to ensure that the test subject's platelets are within normal range. Amy vials of hemolytic blood or blood containing any clots should be discarded. Platelet aggregation testing must be completed within 3 hours of blood collection. After this time the ability of platelets to aggregate decreases.
Dilutions were prepared in PBS or saline at 40× concentration. (25 uL test sample are added to 1000 uL diluted blood (1:40)).

Compound | Performance as compared to ET-18-O—CH3 [1] | Platelet aggregation [2] | platelet aggregation response (in words) [2]
CCCCCCCCCCCCCCCCCCOC[C@@H](COP(=O)([O-])OCC[N+](C)(C)C)OS(C)(=O)=O [1a′S] | 0 |  | 
CCCCCCCCCCCCCCCCCCOCC(COP(=O)([O-])OCC[N+](C)(C)C)OS(C)(=O)=O (stereo not shown) [Compound 1aR] | = |  | 
CCCCCCCCCCCCCCCCCCOCC(COP(=O)([O-])OCC[N+](C)(C)C)OC [D-ET18OCH3, 1-O-octadecyl-2-O-methyl-glycerophosphocholine, reference compound] |  | − | doesn't elicit an aggregation response
